Data from US20240294543A1, “CYCLOHEPTA-THIENO-DIAZEPINE DERIVATIVES AS GABA A GAMMA1 PAM” (Hoffmann-La Roche Inc., priority 2021, published 2024).
pKi: −log10 of the molar value.

Key:
[1] = biological target: human GABAA α1β2γ1 receptor (Homo sapiens (Human), UniProt P14867+Q8N1C3); assay: Radioligand binding assay, competition for [3H]RO7239181, γ1-containing GABAA subtypes
h-GABA-A α2β2γ1 = h-GABA-A α2β2γ1 (Homo sapiens (Human), UniProt P47869+Q8N1C3); assay: Two-electrode voltage clamp electrophysiology in Xenopus oocytes expressing GABAA receptors; format: cell-based; conditions: for Efficacy (GABA) %: % modulation of GABA EC20 = 100*(Fold increase−1), compound at about 30-fold its Ki α2β2γ1; for Fold increase h-GABA-A α2β2γ1 oocyte @ 30-fold Ki: Xenopus oocytes, GABA EC20, compound at about 30-fold its Ki α2β2γ1
Procedure, shortened: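 Xenopus oocytes injected with receptor subunit RNA and recorded 3–5 days later by two-electrode voltage clamp at −80 mV, room temperature, pH 7.4. GABA applied at EC20 for 1.5 min, with and without test compound. Efficacy = extremum of the point-by-point ratio of the two responses, expressed as % modulation of GABA EC20; ≥3 oocytes per concentration.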

[2] = Ki h-GABAA α1β2γ1, membranes of HEK293F cells, [3H]RO7239181 20-30 nM, Table 1

SMILES | pKi [1, 2] | Efficacy (GABA) % (h-GABA-A α2β2γ1) [%] | Fold increase h-GABA-A α2β2γ1 oocyte @ 30-fold Ki (h-GABA-A α2β2γ1) | pKi ([1]; Ki h-GABAA α1β2γ1, Table 3, reference compounds and examples)
Cc1nnc2n1-c1sc3c(c1C(c1c(F)cccc1F)=N[C@H]2C)CCCCC3 [Example 2, (7S)-9-(2,6-difluorophenyl)-3,7-dimethyl-18-thia-2,4,5,8-tetrazatetracyclo[8.8.0.02,6.011,17]octadeca-1(10),3,5,8,11(17)-pentaene] | 7.72 | 66 | 1.66 | –
Cc1nnc2n1-c1sc3c(c1C(c1c(F)cccc1F)=NC2)CCCCO3 [Example 18, 9-(2,6-difluorophenyl)-3-methyl-16-oxa-18-thia-2,4,5,8-tetrazatetracyclo[8.8.0.02,6.011,17]octadeca-1(10),3,5,8,11(17)-pentaene] | 7.26 | 113 | 2.13 | –
CCOC1CN(C(=O)c2nc3n(n2)-c2sc4c(c2C(c2c(F)cccc2F)=N[C@H]3C)COCCO4)C1 [Example 31, [(7S)-9-(2,6-Difluorophenyl)-7-methyl-13,16-dioxa-18-thia-2,3,5,8-tetrazatetracyclo[8.8.0.02,6.011,17]octadeca-1(10),3,5,8,11(17)-pentaen-4-yl]-(3-ethoxyazetidin-1-yl)methanone] | 7.36 | 69 | 1.69 | –
C[C@@H]1N=C(c2c(F)cccc2F)c2c(sc3c2COCCO3)-n2nc(C(=O)N3CC(F)C3)nc21 [Example 24, (3-fluoroazetidin-1-yl)-[(7S)-9-(2,6-difluorophenyl)-7-methyl-13,16-dioxa-18-thia-2,3,5,8-tetrazatetracyclo[8.8.0.02,6.011,17]octadeca-1(10),3,5,8,11(17)-pentaen-4-yl]methanone] | 7.61 | 59 | 1.59 | –
Cc1nnc2n1-c1sc3c(c1C(c1c(F)cccc1F)=N[C@H]2C)CC[C@H](F)CC3 (single isomer, unassigned) [Example 14] | 6.93 | 181 | 2.81 | –
Cc1nnc2n1-c1sc3c(c1C(c1c(F)cccc1F)=NC2)CCCCC3 [Example 1, 9-(2,6-difluorophenyl)-3-methyl-18-thia-2,4,5,8-tetrazatetracyclo[8.8.0.02,6.011,17]octadeca-1(10),3,5,8,11(17)-pentaene] | 7.70 | 64 | 1.64 | 7.71
Cc1nnc2n1-c1sc3c(c1C(c1c(F)cccc1F)=N[C@H]2C)CC[C@@H](F)CC3 (single isomer, unassigned) [Example 15] | 6.88 | 144 | 2.44 | –
Cc1nnc2n1-c1sc3c(c1C(c1c(F)cccc1F)=N[C@H]2C)CCCCO3 [Example 19, (7S)-9-(2,6-difluorophenyl)-3,7-dimethyl-16-oxa-18-thia-2,4,5,8-tetrazatetracyclo[8.8.0.02,6.011,17]octadeca-1(10),3,5,8,11(17)-pentaene] | 7.09 | 122 | 2.22 | –
